According to ChEMBL document CHEMBL1135238, “Antibody-catalyzed cleavage of the D-Ala-D-Lac depsipeptide: an immunological approach to the problem of vancomycin resistance” (Bioorg Med Chem Lett, 2002):
Square brackets hold non-standard residues; d marks the D form. Peptide text beside a SMILES is read from it.

Tests used:
[1] = Ratio of Kcat to Km was determined
[2] = inhibitory activity of compound using pentapeptide cell-wall peptidoglycan (PG) substrates
[3] = Km value was determined
[4] = Kcat value was determined
[5] = Ratio of Kcat to Kuncat was determined

SMILES	Ratio [1]	Ki [2]	Km [3]	k cat [4]	Ratio [5]
CC(=O)NCCCC[C@H](NC(=O)CCNC(=O)CCCC(=O)ON1C(=O)CCC1=O)C(=O)N[C@H](C)P(=O)(O)O[C@H](C)C(=O)O	0.921	< 0.16 mM	2170 µM	3.33e-05 s⁻¹	530
CC(=O)NCCCC[C@H](NC(C)=O)C(=O)N[C@H](C)C(=O)N[C@H](C)C(=O)O (Ac-Lys(Ac)-[dA]-[dA]-OH)		13 mM			
